26 molecules from patent publication US8829029B2, “Dual modulators of 5HT2A and D3 receptors” (Hoffmann-La Roche Inc., priority 2008, dated 2014) can be followed below.

In assay [1] the target is human D3 dopamine receptor (Homo sapiens (Human), UniProt P35462). The experiment in a line: Radioligand binding ([3H]-spiperone) to cloned human D3 receptor expressed in HEK-293 EBNA cells. Particulars: membranes of transfected HEK-293 EBNA cells, 0.5 nM [3H]-spiperone, 1 h at RT. The method in brief:
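Membranes from HEK-293 EBNA cells transiently transfected with human D3 receptor, incubated 1 h at RT with ~0.5 nM [3H]-spiperone and ten compound concentrations (10 μM-0.1 nM); nonspecific binding with 10 μM spiperone. Filtered, scintillation counted; IC50 from four-parameter fit, Ki via Cheng-Prusoff using saturation Kd.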

Assay [2] has as its target human 5-HT2A serotonin receptor (Homo sapiens (Human), UniProt P28223). The experiment in a line: Radioligand binding ([3H]-ketanserin) to cloned human 5-HT2A receptor expressed in HEK-293 EBNA cells. The conditions noted are these: membranes of transfected HEK-293 EBNA cells, 1.1 nM [3H]-ketanserin, 1 h at RT. The method in brief: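 Membranes from transiently transfected HEK-293 EBNA cells incubated 1 h at RT with 1.1 nM [3H]-ketanserin (5-HT2A, 15 μg protein/well, Tris/MgCl2/EGTA pH 7.4) or 0.5 nM [3H]-spiperone (D3, 7.5 μg/well, Tris/NaCl/MgCl2/KCl/CaCl2 pH 7.4) plus test compound at 10 μM-0.1 nM. Nonspecific binding with 10 μM spiperone; filtration, Ki via Cheng-Prusoff.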

Chain of human D3 dopamine receptor (P35462 whole entry): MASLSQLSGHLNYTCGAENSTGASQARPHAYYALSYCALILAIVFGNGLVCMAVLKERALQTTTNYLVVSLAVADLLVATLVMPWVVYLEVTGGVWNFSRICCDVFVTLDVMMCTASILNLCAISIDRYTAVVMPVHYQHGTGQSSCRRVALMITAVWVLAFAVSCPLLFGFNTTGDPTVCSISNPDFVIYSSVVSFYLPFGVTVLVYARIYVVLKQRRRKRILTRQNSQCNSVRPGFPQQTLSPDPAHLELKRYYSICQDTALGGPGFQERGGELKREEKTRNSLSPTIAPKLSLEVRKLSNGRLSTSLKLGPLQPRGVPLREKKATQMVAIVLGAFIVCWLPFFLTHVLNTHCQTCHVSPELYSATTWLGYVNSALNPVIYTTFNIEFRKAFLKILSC

The Ki is the dissociation constant of the complex between target and ligand, obtained from inhibition or displacement. For `CO[C@]1(C)CC[C@H](CC(=O)N[C@H]2CC[C@H](CCN3CCC(c4noc5cc(Cl)ccc45)CC3)CC2)CC1` [Example 42B, N-trans(4-{2-[4-(6-Chloro-benzo[d]isoxazol-3-yl)-piperidin-1-yl]-ethyl}-cyclohexyl)-2-(4-cis-methoxy-4-methyl-cyclohexyl)-acetamide], the results for the inhibition constant (Ki) in assay [1] and in assay [2] were 4 nM and 14 nM, respectively.
The like results for `COC(C)CC(=O)N[C@H]1CC[C@H](CCN2CCC(c3noc4cc(Cl)ccc34)CC2)CC1` (stereo partly drawn) [Example 43, N-trans(4-{2-[4-(6-Chloro-benzo[d]isoxazol-3-yl)-piperidin-1-yl]-ethyl}-cyclohexyl)-3-methoxy-butyramide] were, in that order, 10 nM and 13 nM.
The like results for `CO[C@H](C)CC(=O)N[C@H]1CC[C@H](CCN2CCC(c3noc4cc(Cl)ccc34)CC2)CC1` [Example 43A, (R)—N-trans(4-{2-[4-(6-Chloro-benzo[d]isoxazol-3-yl)-piperidin-1-yl]-ethyl}-cyclohexyl)-3-methoxy-butyramide] were, in that order, 15 nM and 16 nM.
The like results for `CO[C@@H](C)CC(=O)N[C@H]1CC[C@H](CCN2CCC(c3noc4cc(Cl)ccc34)CC2)CC1` [Example 43B, (S)—N-(4-{2-[4-(6-Chloro-benzo[d]isoxazol-3-yl)-piperidin-1-yl]-ethyl}-cyclohexyl)-3-methoxy-butyramide] were, in that order, 6 nM and 16 nM.
For `COC[C@H]1CC[C@H](CC(=O)N[C@H]2CC[C@H](CCN3CCC(c4noc5cc(Cl)ccc45)CC3)CC2)CC1` [Example 44, N-trans-(4-{2-[4-(6-Chloro-benzo[d]isoxazol-3-yl)-piperidin-1-yl]-ethyl}-cyclohexyl)-2-trans (4-methoxymethyl-cyclohexyl)-acetamide], the values for the inhibition constant (Ki) in assay [1] and in assay [2] were 9 nM and 19 nM, respectively.
For `CC1(O)CCC(CC(=O)N[C@H]2CC[C@H](CCN3CCC(c4noc5cc(Cl)ccc45)CC3)CC2)CC1` (stereo partly drawn) [Example 45, N-trans(4-{2-[4-(6-Chloro-benzo[d]isoxazol-3-yl)-piperidin-1-yl]-ethyl}-cyclohexyl)-2-(4-hydroxy-4-methyl-cyclohexyl)-acetamide], in that order: 7 nM and 15 nM.
With `CC(=O)N[C@H]1CC[C@H](CCN2CCC(c3noc4cc(Cl)ccc34)CC2)CC1` [Example 46, N-trans(4-{2-[4-(6-Chloro-benzo[d]isoxazol-3-yl)-piperidin-1-yl]-ethyl}-cyclohexyl)-acetamide], the Ki in assay [1] worked out at 8.19 nM; in assay [2], 23.7 nM.
The like results for `CCS(=O)(=O)N[C@H]1CC[C@H](CCN2CCC(c3noc4cc(F)ccc34)CC2)CC1` [Example 47, Ethanesulfonic acid (4-trans {2-[4-(6-fluoro-benzo[d]isoxazol-3-yl)-piperidin-1-yl]-ethyl}-cyclohexyl)-amide] were, in that order, 5.85 nM and 1.66 nM.
In the case of `O=S(=O)(N[C@H]1CC[C@H](CCN2CCC(c3noc4cc(F)ccc34)CC2)CC1)c1ccc(Cl)cc1` [Example 48, 4-Chloro-N-trans (4-{2-[4-(6-fluoro-benzo[d]isoxazol-3-yl)-piperidin-1-yl]-ethyl}-cyclohexyl)-benzenesulfonamide], the figures for the inhibition constant (Ki) in assay [1] and in assay [2] were 5.87 nM and 5.13 nM, respectively.
Take `COc1ccc(S(=O)(=O)N[C@H]2CC[C@H](CCN3CCC(c4noc5cc(F)ccc45)CC3)CC2)cc1` [Example 49, N-trans(4-{2-[4-(6-Fluoro-benzo[d]isoxazol-3-yl)-piperidin-1-yl]-ethyl}-cyclohexyl)-4-methoxy-benzenesulfonamide]: the figures for the Ki in assay [1] and in assay [2] were 3.72 nM and 4.39 nM, respectively.
As to `N#CCC(=O)N[C@H]1CC[C@H](CCN2CCC(c3noc4cc(Cl)ccc34)CC2)CC1` [Example 51, N-trans-(4-{2-[4-(6-Chloro-benzo[d]isoxazol-3-yl)-piperidin-1-yl]-ethyl}-cyclohexyl)-2-cyano-acetamide], the figures for the Ki in assay [1] and in assay [2] were 8.19 nM and 23.7 nM, respectively.
The like results for `N#CCCC(=O)N[C@H]1CC[C@H](CCN2CCC(c3noc4cc(Cl)ccc34)CC2)CC1` [Example 52, N-trans-(4-{2-[4-(6-Chloro-benzo[d]isoxazol-3-yl)-piperidin-1-yl]-ethyl}-cyclohexyl)-3-cyano-propionamide] were, in that order, 8.77 nM and 15.6 nM.
The like results for `O=C(C[C@H]1CCCO1)N[C@H]1CC[C@H](CCN2CCC(c3noc4cc(Cl)ccc34)CC2)CC1` [Example 53, N-trans-(4-{2-[4-(6-Chloro-benzo[d]isoxazol-3-yl)-piperidin-1-yl]-ethyl}-cyclohexyl)-2-(R)-tetrahydro-furan-2-yl-acetamide] were, in that order, 14.4 nM and 6.19 nM.
For `O=C(CC1CC1)N[C@H]1CC[C@H](CCN2CCC(c3noc4cc(Cl)ccc34)CC2)CC1` [Example 54, N-trans-(4-{2-[4-(6-Chloro-benzo[d]isoxazol-3-yl)-piperidin-1-yl]-ethyl}-cyclohexyl)-2-cyclopropyl-acetamide], in that order: 3.21 nM and 13.1 nM.
As to `O=C(CO)N[C@H]1CC[C@H](CCN2CCC(c3noc4cc(Cl)ccc34)CC2)CC1` [Example 55, N-trans-(4-{2-[4-(6-Chloro-benzo[d]isoxazol-3-yl)-piperidin-1-yl]-ethyl}-cyclohexyl)-2-hydroxy-acetamide], the inhibition constant (Ki) in assay [1] stood at 16.8 nM; in assay [2], 15 nM.
The like results for `CS(=O)(=O)CC(=O)N[C@H]1CC[C@H](CCN2CCC(c3noc4cc(Cl)ccc34)CC2)CC1` [Example 56, N-trans-(4-{2-[4-(6-Chloro-benzo[d]isoxazol-3-yl)-piperidin-1-yl]-ethyl}-cyclohexyl)-2-methanesulfonyl-acetamide] were, in that order, 14.8 nM and 15.2 nM.
Turning to `O=C(CC1OCCCO1)N[C@H]1CC[C@H](CCN2CCC(c3noc4cc(Cl)ccc34)CC2)CC1` [Example 57, N-trans-(4-{2-[4-(6-Chloro-benzo[d]isoxazol-3-yl)-piperidin-1-yl]-ethyl}-cyclohexyl)-2-[1,3]dioxan-2-yl-acetamide], the inhibition constant (Ki) was found to be 6.13 nM in assay [1] and 17.6 nM in assay [2].
The like results for `CO[C@H]1CC[C@H](CC(=O)N[C@H]2CC[C@H](CCN3CCC(c4noc5ccc(Cl)cc45)CC3)CC2)CC1` [Example 58, N-trans-(4-{2-[4-(5-Chloro-benzo[d]isoxazol-3-yl)-piperidin-1-yl]-ethyl}-cyclohexyl)-2-(4-methoxy-cyclohexyl)-acetamide] were, in that order, 8.38 nM and 24.7 nM.
For `CS(=O)(=O)N[C@H]1CC[C@H](CCN2CCC(c3noc4ccc(F)cc34)CC2)CC1` [Example 59, N-trans-(4-{2-[4-(5-Fluoro-benzo[d]isoxazol-3-yl)-piperidin-1-yl]-ethyl}-cyclohexyl)-methanesulfonamide], in that order: 7.98 nM and 27.5 nM.
Take `COCCC(=O)N[C@H]1CC[C@H](CCN2CCC(c3noc4cc(Cl)c(F)cc34)CC2)CC1` [Example 60, N-trans-(4-{2-[4-(6-Chloro-5-fluoro-benzo[d]isoxazol-3-yl)-piperidin-1-yl]-ethyl}-cyclohexyl)-3-methoxy-propionamide]: the Ki is 13.5 nM in assay [1] and 44 nM in assay [2].
For `O=C(CC1CCCO1)N[C@H]1CC[C@H](CCN2CCC(c3noc4cc(Cl)c(F)cc34)CC2)CC1` (stereo partly drawn) [Example 61, N-trans-(4-{2-[4-(6-Chloro-5-fluoro-benzo[d]isoxazol-3-yl)-piperidin-1-yl]-ethyl}-cyclohexyl)-2-(tetrahydro-furan-2-yl)-acetamide], in that order: 17.7 nM and 31 nM.
For `COCC(=O)N[C@H]1CC[C@H](CCN2CCC(c3noc4cc(F)c(F)cc34)CC2)CC1` [Example 62, N-trans-(4-{2-[4-(5,6-Difluoro-benzo[d]isoxazol-3-yl)-piperidin-1-yl]-ethyl}-cyclohexyl)-2-methoxy-acetamide], the Ki in assay [1] is 32.7 nM; in assay [2], 10.5 nM.
Take `CO[C@@H]1CC[C@@H](CC(=O)N[C@H]2CC[C@H](CCN3CCC(c4noc5cc(F)c(F)cc45)CC3)CC2)C1` [Example 63, N-trans-(4-{2-[4-(5,6-Difluoro-benzo[d]isoxazol-3-yl)-piperidin-1-yl]-ethyl}-cyclohexyl)-2-((1R,3R)-3-methoxy-cyclopentyl)-acetamide]: the values for the inhibitory constant (Ki) in assay [1] and in assay [2] were 20 nM and 13.2 nM, respectively.
The like results for `CO[C@H]1CC[C@H](CC(=O)N[C@H]2CC[C@H](CCN3CCC(c4noc5cc(F)c(F)cc45)CC3)CC2)CC1` [Example 64, N-trans-(4-{2-[4-(5,6-Difluoro-benzo[d]isoxazol-3-yl)-piperidin-1-yl]-ethyl}-cyclohexyl)-2-(4-methoxy-cyclohexyl)-acetamide] were, in that order, 17.3 nM and 7.67 nM.
The like results for `COCCC(=O)N[C@H]1CC[C@H](CCN2CCC(c3noc4cc(F)c(F)cc34)CC2)CC1` [Example 65, N-trans-(4-{2-[4-(5,6-Difluoro-benzo[d]isoxazol-3-yl)-piperidin-1-yl]-ethyl}-cyclohexyl)-3-methoxy-propionamide] were, in that order, 11.4 nM and 12.9 nM.
Take `CC(=O)N[C@H]1CC[C@H](CCN2CCC(c3noc4cc(F)c(F)cc34)CC2)CC1` [Example 66, N-trans-(4-{2-[4-(5,6-Difluoro-benzo[d]isoxazol-3-yl)-piperidin-1-yl]-ethyl}-cyclohexyl)-acetamide]: the Ki stood at 11.4 nM in assay [1] and 17.7 nM in assay [2].
